Test [1] has as its target T1, Bcl-xL (Homo sapiens, UniProt Q07817).
T1 construct: The gene for the first 209 amino acids of Bcl-xL; made in house; host or cells: E. coli BL21(DE3), pET24a vector
In words: Equilibrium immunoassays (ELISA and AMMP data combined), Kd of ligands for Bcl-xL. In kind it is binding. On the procedure: Sample Preparation. A set of serially diluted Bcl-xL standards, at 2× the desired concentration, were made in sample buffer. For each ligand to be tested (such as peptide ligands), a set of dilutions at 2× the desired concentration was also prepared. The Bcl-xL samples were either mixed 1:1 with sample buffer (standards) or ligands (samples), and allowed to incubate at room temperature for 6 days. After the incubation, the standards and samples were analyzed using ELISA or the ViBE BioAnalyzer (FIG. 1).
ELISA Assays. ELISA plates were incubated overnight at 4° C. with 1.5 nmol of streptavidin (for D1 or Bcl-xL capture ligands) or 54H6 mAb in 1×PBS. Plates were washed 3× with wash buffer (1×PBS+0.1% (v/v) Tween-20) and blocked with 1×PBS+5% (w/v) BSA for two hours. For the D1 or Bcl-xL capture ligands, 100 μL of a 30 nM solution of the reagents was added to wells and incubated for 1 hour. This step was skipped for the 54H6 mAb capture ligand (already immobilized on the plate). After the capture ligand incubation, 100 μL of sample or standards were added in each well, and incubated for 1 hour at room temperature. Plates were washed, incubated with HRP-conjugated probe antibody (such as anti-HIS tag antibody) in sample buffer for 1 hour, washed, and incubated with TMB substrate (Thermo Scientific). Reactions were stopped after approximately 10 minutes with 2 M sulfuric acid, and the absorbance at 450 nm was measured via a plate reader (Molecular Devices). The ligand of interest, capture ligand, target protein, and probe ligand used in example ELISA assays performed are highlighted in the table below.
AMMP Assays. For the AMMP assays, 90 μL of each sample or standards was incubated with 30 μL of magnetic beads (12 μg of beads/mL) and fluorescein-labeled antibody (8 nM) in sample buffer for 1 hour. The experiment's run buffer was 1×PBS+1% (v/v) Tween-20+1% (v/v) heat-treated FBS (Invitrogen; FBS was heat treated for 15 minutes at 65° C. and filtered). BioScale Universal Detection Cartridges were used in performing all of the assays. The device was used per the manufacturer's instructions. The ligand of interest, capture ligand, target protein, and probe ligand used in example AMMP assays performed are highlighted in the table below.
Monovalent and Divalent Analysis. The data for both sets of target concentrations were simultaneously fit for Kd (in the Kd only fit) or Kd and Mo. The data was fitted to the equilibrium model using the lowest absolute deviation method, by varying either only Kd or both Kd and [L]0 simultaneously. The monovalent assay fitting was done by Excel Solver (GRG Non-Lin method) using a set of five initial values. The set of values which provided the lowest error after the fitting were chosen as the final values. For the divalent assays, the fitting was performed by MATLAB's fminsearch function and a set of 10 initial values for Kd1, Kd2, and [L]0. […] For the divalent reverse assay, an extra parameter, Cf, was also determined by fitting (FIG. 7 Reverse Assay).
Enzymatic Kd Calculation Assay. The Kd values of ligands of interest were determined using a protocol modified from Friguet et al., Journal of immunological methods, 77, 305-319 (1985). The samples were prepared and analyzed by ELISA assay in a similar process as described above. The OD450 for the standards and their concentration values were fit to a four parameter logistic curve (standard curve). The concentration of the free Bcl-xL in solution (responsible for the signal) for each sample was calculated using the standard curve, and converted into percent of Bcl-xL bound by ligand in solution.
For orientation: ELISA stands for enzyme-linked immunosorbent assay.

In test [2] the target is T1, Bcl-xL. In words: Radiolabeled off-rate assay on immobilized Bcl-xL. In kind it is binding. The text has this:
Radiolabeled Off-Rate Assay. The DNA sequences coding for the peptides were ordered from Integrated DNA Technologies (IDT). Each DNA construct contained a T7 RNA Polymerase promoter, and a 5′ deletion mutant of the Tobacco Mosaic Virus (ΔTMV). The C-terminal portion of the peptides were elongated with a flexible serine-glycine linker (six amino acids long) and an HA tag. After gel purification using urea-PAGE, the DNA sequences were PCR amplified using Taq polymerase and in vitro transcribed into mRNA using T7 RNA polymerase. After transcription, the mRNA was urea-PAGE purified and resuspended in deionized water to a final concentration of 30 μM.
The samples were in vitro translated at 30° C. for 1 hour in the translation solution—150 mM KOAc, 750 μM MgCl2, 2 μM mRNA, 1× translation mix (20 mM Hepes-KOH pH 7.6, 100 mM creatine phosphate, 2 mM DTT, and 312.5 μM of each amino acid excluding methionine), ^35S-labeled methionine (Perkin Elmer; 20 μCi for each 25 μL of translation), and 60% (v/v) rabbit reticulocyte lysate. Radiolabeled peptides were purified using magnetic HA beads (Life Technologies) and eluted with 100 μL, 50 mM NaOH, then immediately neutralized with 20 μL of 1 M Tris-HCl, pH 8.0.
The radiolabeled peptides were allowed to bind to 30 pmol immobilized Bcl-xL for 1 hour in sample buffer (1×PBS, 1% (w/v) BSA, 0.1% (v/v) Tween 20, 10 μM biotin). The beads were magnetically separated, and washed 5× with sample buffer. The beads were resuspended in 1 mL of sample buffer containing 3 μM non-biotinylated Bcl-xL (˜100× molar excess relative to immobilized biotinylated Bcl-xL). At various time points, 100 μL of slurry was removed and the beads were magnetically separated and washed. The percent remaining at each time point was determined by dividing the counts per minute (cpm) on beads by total cpm (beads+washes). The peptide off-rate was determined by an exponential fit of the Percent counts on beads vs. Time (s).
The peptide ligands were made using a C-terminal HA tag, and affinity purified.

The next test has as its target streptavidin (Streptomyces avidinii, UniProt P22629). The note with it: literature reference value, Piran et al. 1990; cited from earlier work.
The target of test [3] is T1, Bcl-xL. In words: High-throughput sequencing kinetic (HTSK) on- and off-rates of mRNA-peptide fusions. Format: binding. On the procedure: Preparing the pools of fusion ligands. The DNAs for the final enriched pools from the extension and the doped selection against Bcl-xL were generated. The DNA pools were PCR amplified using Taq polymerase and in vitro transcribed into mRNA using T7 RNA polymerase (Liu et al., Methods Enzymol. 318, 268-293 (2000)). After transcription, the mRNA was urea-PAGE purified and resuspended in deionized water to a final concentration of 30 μM. The mRNA was then ligated to fluorescein-F30P (phosphate-dA21-[dT-fluor]-[C9]3-dAdCdCP; where [dT-fluor] is fluorescein dT (Glen Research), [C9] is spacer 9 (Glen Research), and P is puromycin (Glen Research); synthesized at the Keck Oligo Facility at Yale) using T4 DNA ligase (Takahashi et al., Methods Mol. Biol. 535, 293-314 (2009)). The ligation was performed using a splint complementary to the 3′ end of the RNA and the 5′ end of the DNA-linker. The ligated mRNA was urea-PAGE purified and resuspended in deionized water to final concentration of 30 μM. The samples were in vitro translated in the translation solution-150 mM KOAc, 750 μM MgCl2, 2 μM mRNA, in 1× translation mix (20 mM Hepes-KOH pH 7.6, 100 mM creatine phosphate, 2 mM DTT, and 312.5 μM of each amino acid) and 60% (v/v) rabbit reticulocyte lysate. To prepare radiolabeled peptides or proteins, non-labeled methionine was substituted with ^35S-labeled methionine (Perkin Elmer; 20 μCi for each 25 μL of translation). The translation reactions were incubated at 30° C. for one hour. To form mRNA-protein fusions, KCl and MgCl2 were added to the reaction to final concentrations of 250 mM and 30 mM respectively after translation, and the samples were frozen at −20° C.
To purify the fusion molecules, 100 μL of dT cellulose (25% (v/v) slurry, GE Healthcare) in isolation buffer (100 mM Tris-HCl pH 8.0, 1 M NaCl, 0.2% (v/v) Triton X-100) was added and incubated for 1 hour. The beads were washed five times with 700 μL of isolation buffer, and the fusions were eluted with 3×80 μL of 65° C. water and desalted through Centrisep columns (Princeton Separations). The desalted fusions were adjusted to 1×RT buffer (50 mM Tris-HCl pH 8.3, 75 mM KCl, 3 mM MgCl2, […], […],) and the sample was heated to 65° C. for 5 minutes and cooled on ice to anneal the 3′ primer. After cooling, […] of Superscript II enzyme was added and the reaction incubated at 42° C. for one hour. […]
On- and off-rate experiments. […] The radiolabeled samples were washed 3×, and the beads were counted via a scintillation counter.
To obtain the HTSK off-rates, after the kinetic on-rate experiment, the remaining beads were washed 5× with selection buffer. […] The radiolabeled samples were washed and counted via a scintillation counter. […]

Usually kon stands for the second-order rate constant of association. One may read the Kd as the free concentration of one partner at which half of the binding sites on the other are occupied at equilibrium, for simple one-to-one binding. As a reminder, the koff is the first-order rate constant of dissociation.

Peptide text beside a SMILES is read from it. * marks the point of attachment. Biotin = O=C1N[C@H]2[C@H](CS[C@H]2CCCCC(=O)*)N1

T1 sequence (Q07817 1-209 limits assumed): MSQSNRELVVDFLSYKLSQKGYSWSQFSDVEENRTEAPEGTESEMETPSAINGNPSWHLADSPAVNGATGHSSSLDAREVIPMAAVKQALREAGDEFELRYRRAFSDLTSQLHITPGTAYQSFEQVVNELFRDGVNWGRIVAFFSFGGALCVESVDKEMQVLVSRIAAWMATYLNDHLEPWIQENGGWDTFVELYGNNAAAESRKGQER
streptavidin, sequence (P22629 25-183, species assumed): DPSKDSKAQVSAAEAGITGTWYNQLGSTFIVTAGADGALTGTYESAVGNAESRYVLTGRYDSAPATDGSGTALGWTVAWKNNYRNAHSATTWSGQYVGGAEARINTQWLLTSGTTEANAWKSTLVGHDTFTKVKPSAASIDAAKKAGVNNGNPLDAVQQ

Consider `CC[C@H](C)[C@H](NC(=O)[C@@H](NC(=O)[C@@H](NC(=O)[C@@H](NC(=O)[C@H](CCC(=O)O)NC(=O)[C@@H](NC(=O)[C@@H](N)CCSC)[C@@H](C)CC)[C@@H](C)O)[C@@H](C)CC)[C@@H](C)O)C(=O)N[C@@H](Cc1ccc(O)cc1)C(=O)N[C@@H](CCCCN)C(=O)N[C@@H](Cc1ccc(O)cc1)C(=O)N[C@@H](CCCCN)C(=O)N[C@@H](CCCCN)C(=O)N[C@@H](C)C(=O)N[C@@H](C)C(=O)N[C@@H](CC(=O)O)C(=O)N[C@@H](Cc1c[nH]cn1)C(=O)N[C@@H](Cc1ccccc1)C(=O)N[C@@H](CO)C(=O)N[C@@H](CCSC)C(=O)N[C@@H](CO)C(=O)N[C@@H](CCSC)C(=O)NCC(=O)N[C@@H](CO)C(=O)N[C@@H](CCCCNC(=O)CCCC[C@@H]1SC[C@@H]2NC(=O)N[C@@H]21)C(N)=O` [E2] (H-MIETITIYKYKKAADHFSMSMGSK(Biotin)-NH2), for which the on-rate constant (kon) at Bcl-xL [1] was found to be 53000 M⁻¹ s⁻¹. In addition, on Bcl-xL [1] (Kd, equilibrium ELISA/AMMP assays (Table 1 values)), the Kd came to 0.3 nM. In addition, the “Ratio of Fit [L]0 to Known [L]0” value on Bcl-xL [1] (simultaneous fit of Kd and [L]0, mean ± standard error) is on record as 96% ± 40%. Moreover, the koff at Bcl-xL [2] (radiolabeled peptide-mRNA fusions bound to immobilized Bcl-xL, read-out: koff) amounted to 1.6e-05 s⁻¹.

For the compound `O=C(O)CCCC[C@@H]1SC[C@@H]2NC(=O)N[C@@H]21` [biotin], the “slowest reported off-rate of biotin and streptavidin” value on streptavidin is given as 2.4×10^−6.

Turning to MIDTNVILNYKKAADHFSITMGSK [D79], the affinity on Bcl-xL [3] (from HTSK on- and off-rates), expressed as Kd, was 0.0024 nM. At Bcl-xL [3] (mRNA-peptide fusions, next-generation sequencing), the HTSK koff was 3.3e-07 s⁻¹. This compound returned a Peptide koff at Bcl-xL [2] (in vitro translated radiolabeled peptides with C-terminal HA tag) of 5.9e-07 s⁻¹. Further, the koff value at Bcl-xL [2] (radiolabeled peptide, unit not given) is reported as 5.9×10^−7.
